Measurements from patent US20240368163A1, “COMPOUNDS AND METHODS FOR MODULATING SPLICING” (REMIX THERAPEUTICS INC., priority 2021, published 2024).
Read-outs that look alike come from different tables or passages of the source.

Key:
Type in all cases: cell-based, human
MYB [1] = test: HiBiT protein abundance assay, MYB; conditions: modified K562 cells
Outline: (§1)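 HiBiT knock-in K562, 10000 cells/well, 24 h cpd at 37 °C/5% CO2; 10-pt 3-fold series from 10 μM final; DMSO ≤0.25%. Lytic detection, luminescence read. 4PL fit → IC50 vs DMSO control; unmodified K562 = baseline.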

MYB [2] = test: Splicing RT-qPCR assay, MYB mRNA canonical junction (CJ) and alternative junction (AJ); conditions: for AC50: increase in AJ mRNA
Outline: (§2)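 A673 or K562 cells were treated 24 h at 37 °C with an 11-point 3-fold dilution series (top 10 uM final, DMSO ≤0.25%). Lysates underwent one-step RT-qPCR for canonical (CJ) and alternative (AJ) junctions; Ct normalized to GAPDH, GUSB or PPIA and DMSO control via 2^(−ΔΔCt), expressed as percentage response.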

Target C = test: Splicing RT-qPCR panel, Target C canonical junction (CJ) mRNA; conditions: read-out: Target C IC50 (decrease in CJ mRNA levels)
Outline: as §2

HTT = test: HiBiT protein abundance assay, HTT; conditions: modified K562 cells
Outline: as §1

SMN2 = test: Splicing RT-qPCR panel, SMN2 canonical junction (CJ) mRNA; conditions: read-out: SMN2 IC50 (decrease in CJ mRNA levels)
Outline: as §2

[3] = Homo sapiens, K562, 24 h, Table 13A
[4] = Homo sapiens, 24 h, decrease in CJ mRNA, A673 or K562 cells, 24 hours treatment, RT-qPCR, read-out: MYB CJ IC50
[5] = Homo sapiens, 24 h, A673 or K562 cells, 24 hours treatment, RT-qPCR
[6] = Homo sapiens, RT-qPCR panel, canonical junction mRNA, compound concentration having 50% response in CJ decrease, read-out: MYB IC50 (decrease in CJ mRNA levels)
[7] = Homo sapiens, RT-qPCR panel, canonical junction mRNA, compound concentration having 50% response in CJ decrease
[8] = RT-qPCR panel, canonical junction mRNA, compound concentration having 50% response in CJ decrease, read-out: MYB IC50 (decrease in CJ mRNA levels)
[9] = decrease in CJ mRNA, A673 or K562 cells, 24 hours treatment, RT-qPCR, read-out: MYB CJ IC50
[10] = RT-qPCR panel, canonical junction mRNA, compound concentration having 50% response in CJ decrease
[11] = Homo sapiens, K562, 24 h, Table 13B
[12] = Homo sapiens, gene panel, CJ qPCR, protocol of Example 142, read-out: MYB IC50 (decrease in CJ mRNA levels)
[13] = Homo sapiens, gene panel, CJ qPCR, protocol of Example 142

Compound	IC50 (MYB [1]; [3])	IC50 (MYB [2]; [4])	AC50 (MYB [2]; [5])	IC50 (MYB [2]; [6])	IC50 (Target C; [7])	IC50 (HTT; [3])	IC50 (SMN2; [7])	other results
c1n[nH]cc1-c1ccc(-c2ccc(N[C@@H]3C[C@H]4CCC[C@@H](C3)N4)nn2)c2[nH]ncc12 [Compound 294]	100 to 1000 nM	100 to 1000 nM	100 to 1000 nM	100 to 1000 nM	100 to 1000 nM	100 to 1000 nM	< 100 nM	
CC1(C)CC(Oc2ccc(-c3cc(F)c(-c4cn[nH]c4)c4cn[nH]c34)nn2)CC(C)(C)N1 [Compound 307]	100 to 1000 nM	100 to 1000 nM	1000 to 10000 nM	100 to 1000 nM	100 to 1000 nM	< 100 nM	< 100 nM	
c1nc2c(-c3cn[nH]c3)ccc(-c3ccc(N(C4CC4)C4C[C@H]5CCC[C@@H](C4)N5)nn3)c2s1 (stereo partly shown) [Compound 311]	100 to 1000 nM	100 to 1000 nM	100 to 1000 nM	100 to 1000 nM	100 to 1000 nM	100 to 1000 nM	< 100 nM	
Fc1cc(-c2ccc(OC3CC4CC(F)(F)C(C3)N4)nn2)c2[nH]ncc2c1-c1cn[nH]c1 (stereo not shown) [Compound 313, 7-[6-({6,6-difluoro-8-azabicyclo[3.2.1]octan-3-yl}oxy)pyridazin-3-yl]-5-fluoro-4-(1H-pyrazol-4-yl)-1H-indazole]	100 to 1000 nM	100 to 1000 nM	100 to 1000 nM	100 to 1000 nM	100 to 1000 nM	100 to 1000 nM	< 100 nM	
Fc1cc(-c2ccc(O[C@@H]3C[C@H]4CC[C@@H](C3)N4)nn2)c2sncc2c1-c1cn[nH]c1 [Compound 327]	< 100 nM	< 100 nM	< 100 nM	< 100 nM	< 100 nM	< 100 nM	< 100 nM	
COc1cc(-c2ccc(-c3ccc(N(C)C4CC(C)(C)NC(C)(C)C4)nn3)c3scnc23)cnn1 [Compound 330]	100 to 1000 nM	100 to 1000 nM	100 to 1000 nM	100 to 1000 nM	< 100 nM	< 100 nM	< 100 nM	
CC(C)(C)NC1CCN(c2ccc(-c3ccc(-c4cn[nH]c4)c4ncsc34)nn2)C1 (stereo not shown) [Compound 336]						< 100 nM	< 100 nM	IC50 (MYB [1]; Table 13A, 24 hours): 100 to 1000 nM; IC50 (MYB [2]; [8]): 100 to 1000 nM; IC50 (MYB [2]; [9]): 100 to 1000 nM; IC50 (Target C; [10]): > 10000 nM
c1nc2c(-c3cn[nH]c3)ccc(-c3ccc(N4CCC(NC5CC5)C4)nn3)c2s1 (stereo not shown) [Compound 337]	100 to 1000 nM	> 10000 nM	> 10000 nM	> 10000 nM	> 10000 nM	1000 to 10000 nM	100 to 1000 nM	
Fc1cc(-c2ccc(N[C@@H]3C[C@H]4CC[C@@H](C3)N4)nn2)c2scnc2c1-c1cn[nH]c1 [Compound 339]	< 100 nM	< 100 nM	< 100 nM	< 100 nM	< 100 nM	< 100 nM	< 100 nM	
Cc1ncc(-c2ccc(-c3ccc(O[C@@H]4C[C@H]5CC[C@@H](C4)N5)nn3)c3scnc23)s1 [Compound 348, 7-{6-[(exo)-8-azabicyclo[3.2.1]octan-3-yloxy]pyridazin-3-yl}-4-(2-methyl-1,3-thiazol-5-yl)-1,3-benzothiazole]	< 100 nM	100 to 1000 nM	100 to 1000 nM	100 to 1000 nM	100 to 1000 nM	< 100 nM	< 100 nM	
CN(c1ccc(-c2ccc(-c3cn[nH]c3)c3ncsc23)nn1)[C@H]1C[C@H]2COC[C@@H](C1)N2 [Compound 356, (endo)-N-methyl-N-{6-[4-(1H-pyrazol-4-yl)-1,3-benzothiazol-7-yl]pyridazin-3-yl}-3-oxa-9-azabicyclo[3.3.1]nonan-7-amine]								IC50 (MYB [1]; Table 13A, 24 hours): < 100 nM; IC50 (MYB [2]; [8]): 100 to 1000 nM; IC50 (MYB [2]; [9]): 100 to 1000 nM; IC50 (Target C; [10]): < 100 nM; IC50 (HTT; Table 13A, 24 hours): < 100 nM; IC50 (SMN2; [10]): < 100 nM
COc1cc(-c2ccc(-c3ccc(O[C@@H]4C[C@H]5CC[C@@H](C4)N5)nn3)c3scnc23)cnn1 [Compound 362]	< 100 nM	100 to 1000 nM	< 100 nM	100 to 1000 nM	100 to 1000 nM	< 100 nM	< 100 nM	
Fc1ccn(-c2ccc(-c3ccc(O[C@@H]4C[C@H]5CC[C@@H](C4)N5)nn3)c3scnc23)n1 [Compound 363]	100 to 1000 nM	100 to 1000 nM	100 to 1000 nM	100 to 1000 nM	100 to 1000 nM	< 100 nM	< 100 nM	
CN(c1ncc(-c2ccc(-n3cccn3)c3[nH]ncc23)nn1)[C@@H]1C[C@H]2CCC[C@@H](C1)N2 [Compound 551]	< 100 nM			100 to 1000 nM	< 100 nM	< 100 nM	< 100 nM	
c1cnn(-c2ccc(-c3cnc(N[C@@H]4C[C@H]5CC[C@@H](C4)N5)nn3)c3cn[nH]c23)c1 [Compound 556]	100 to 1000 nM			100 to 1000 nM	100 to 1000 nM	< 100 nM	100 to 1000 nM	
c1cnn(-c2ccc(-c3cnc(N[C@@H]4C[C@H]5CCC[C@@H](C4)N5)nn3)c3cn[nH]c23)c1 [Compound 561]	100 to 1000 nM			100 to 1000 nM	100 to 1000 nM	< 100 nM	100 to 1000 nM	
CC(C)(C)C1CN(c2ncc(-c3ccc(-n4cccn4)c4[nH]ncc34)nn2)CCN1 (stereo not shown) [Compound 572]	100 to 1000 nM			100 to 1000 nM	100 to 1000 nM	< 100 nM	100 to 1000 nM	
CN(c1ncc(-c2ccc(-n3cncn3)c3[nH]ncc23)nn1)[C@@H]1C[C@H]2CCC[C@@H](C1)N2 [Compound 574]	100 to 1000 nM			100 to 1000 nM	< 100 nM	< 100 nM	< 100 nM	
CN(c1ncc(-c2ccc(-n3ccnn3)c3[nH]ncc23)nn1)[C@@H]1C[C@H]2CCC[C@@H](C1)N2 [Compound 576]	100 to 1000 nM			1000 to 10000 nM	100 to 1000 nM	< 100 nM	100 to 1000 nM	
Cc1ncc(-c2ccc(-c3cnc(N(C)[C@@H]4C[C@H]5CCC[C@@H](C4)N5)nn3)c3scnc23)s1 [Compound 578]	100 to 1000 nM			100 to 1000 nM	100 to 1000 nM	< 100 nM	< 100 nM	
Cc1nc(-c2ccc(-c3cnc(N(C)[C@@H]4C[C@H]5CCC[C@@H](C4)N5)nn3)c3scnc23)cs1 [Compound 579]	1000 to 10000 nM			1000 to 10000 nM	100 to 1000 nM	100 to 1000 nM	100 to 1000 nM	
Cc1cc(-c2ccc(-c3cnc(N(C)[C@@H]4C[C@H]5CCC[C@@H](C4)N5)nn3)c3scnc23)sn1 [Compound 580]	100 to 1000 nM			100 to 1000 nM	< 100 nM	< 100 nM	< 100 nM	
CC(C)(C)[C@H]1CN(c2ncc(-c3ccc(-n4cccn4)c4[nH]ncc34)nn2)CCN1 [Compound 581]	100 to 1000 nM			100 to 1000 nM	100 to 1000 nM	< 100 nM	100 to 1000 nM	
COc1nc(-c2ccc(N(C)[C@@H]3C[C@H]4CC[C@@H](C3)N4)nn2)ccc1-c1cn[nH]c1 [Compound 906]								IC50 (MYB [1]; [11]): < 100 nM; IC50 (MYB [2]; [12]): 100 to 1000 nM; IC50 (Target C; [13]): < 100 nM; IC50 (HTT; [11]): < 100 nM; IC50 (SMN2; [13]): < 100 nM
CN(c1ccc(-c2ccc(-c3cn[nH]c3)cn2)nn1)[C@@H]1C[C@H]2CC[C@@H](C1)N2 [Compound 915]								IC50 (MYB [1]; [11]): 1000 to 10000 nM; IC50 (MYB [2]; [12]): 100 to 1000 nM; IC50 (Target C; [13]): 1000 to 10000 nM; IC50 (HTT; [11]): 100 to 1000 nM; IC50 (SMN2; [13]): > 10000 nM
COc1nc(-c2ccc(OC3CC(C)(C)NC(C)(C)C3)nn2)ccc1-c1cn[nH]c1 [Compound 917]								IC50 (MYB [1]; [11]): 100 to 1000 nM; IC50 (MYB [2]; [12]): 100 to 1000 nM; IC50 (Target C; [13]): 100 to 1000 nM; IC50 (HTT; [11]): < 100 nM; IC50 (SMN2; [13]): < 100 nM
COc1nc(-c2ccc(OC3CC(C)(C)NC(C)(C)C3)nn2)ccc1-c1cnn(C)c1 [Compound 918]								IC50 (MYB [1]; [11]): 100 to 1000 nM; IC50 (MYB [2]; [12]): 100 to 1000 nM; IC50 (Target C; [13]): 100 to 1000 nM; IC50 (HTT; [11]): < 100 nM; IC50 (SMN2; [13]): < 100 nM
COc1nc(-c2ccc(N(C)C3CC(C)(C)NC(C)(C)C3)nn2)ccc1-c1cn[nH]c1 [Compound 919]								IC50 (MYB [1]; [11]): 100 to 1000 nM; IC50 (MYB [2]; [12]): 100 to 1000 nM; IC50 (Target C; [13]): 100 to 1000 nM; IC50 (HTT; [11]): < 100 nM; IC50 (SMN2; [13]): < 100 nM
COc1nc(-c2ccc(N(C)C3CC(C)(C)NC(C)(C)C3)nn2)ccc1-c1cnn(C)c1 [Compound 920]								IC50 (MYB [1]; [11]): 100 to 1000 nM; IC50 (MYB [2]; [12]): 100 to 1000 nM; IC50 (Target C; [13]): 100 to 1000 nM; IC50 (HTT; [11]): < 100 nM; IC50 (SMN2; [13]): < 100 nM
